Source: the supplement of paper PMC10307832

Columns and labels:
Experiment in all cases: relative viability (nuclei count vs DMSO), 5 days (fraction); higher = more cells survive
NCI-H1944 = tested on: NCI-H1944
Method in brief: (§1)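 Relative viability was taken as the ratio of nuclei in treated wells to nuclei in vehicle wells. Lung cancer cell lines in 1536-well plates received compounds by pin tool one day after seeding, either one drug alone or a fixed anchor-drug dose plus five library-drug doses (not always all listed) in √10 steps. Nuclei were counted on 4× images after 5 days of treatment, and values are medians of duplicate plates.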

LU99A = tested on: LU99A
Method in brief: as §1

NCI-H1651 = tested on: NCI-H1651
Method in brief: as §1

NCI-H1734 = tested on: NCI-H1734
Method in brief: as §1

UMC-11 = tested on: UMC-11
Method in brief: as §1

NCI-H2228 = tested on: NCI-H2228
Method in brief: as §1

NCI-H460 = tested on: NCI-H460
Method in brief: as §1

HCC-366 = tested on: HCC-366
Method in brief: as §1

NCI-H3122 = tested on: NCI-H3122
Method in brief: as §1

CAL-12T = tested on: CAL-12T
Method in brief: as §1

NCI-H2170 = tested on: NCI-H2170
Method in brief: as §1

RERF-LC-KJ = tested on: RERF-LC-KJ
Method in brief: as §1

PC-3 [JPC-3] = tested on: PC-3 [JPC-3]
Method in brief: as §1

LC-2-ad = tested on: LC-2-ad
Method in brief: as §1

NCI-H1755 = tested on: NCI-H1755
Method in brief: as §1

NCI-H2405 = tested on: NCI-H2405
Method in brief: as §1

ChaGo-K-1 = tested on: ChaGo-K-1
Method in brief: as §1

HCC-78 = tested on: HCC-78
Method in brief: as §1

ABC-1 = tested on: ABC-1
Method in brief: as §1

LOU-NH91 = tested on: LOU-NH91
Method in brief: as §1

NCI-H1793 = tested on: NCI-H1793
Method in brief: as §1

NCI-H1395 = tested on: NCI-H1395
Method in brief: as §1

NCI-H2087 = tested on: NCI-H2087
Method in brief: as §1

Work on `Oc1nc(-c2ccc(C(F)(F)F)cc2)nc2c1CSCC2` [XAV939] + N=C(N)NC(=N)NCCc1ccccc1 [Phenformin] (partner 250 µM) yielded a relative viability (NCI-H1944; first compound 0.08 µM) of 0.233, a relative viability (NCI-H1944; first compound 0.253 µM) of 0.198 and a relative viability (NCI-H1944; first compound 0.8 µM) of 0.199. It also gave a relative viability (NCI-H1944; first compound 2.53 µM) of 0.17, a relative viability (LU99A; first compound 0.08 µM) of 0.956 and a relative viability (LU99A; first compound 0.253 µM) of 0.863. The relative viability (LU99A; first compound 0.8 µM) was 0.807, the relative viability (LU99A; first compound 2.53 µM) was 0.853 and the relative viability (NCI-H1651; first compound 0.08 µM) was 0.359. It also gave a relative viability (NCI-H1651; first compound 0.253 µM) of 0.31, a relative viability (NCI-H1651; first compound 0.8 µM) of 0.353 and a relative viability (NCI-H1651; first compound 2.53 µM) of 0.302. For the same compound, the relative viability (NCI-H1734; first compound 0.08 µM) was 0.44, the relative viability (NCI-H1734; first compound 0.253 µM) was 0.386 and the relative viability (NCI-H1734; first compound 0.8 µM) was 0.337. It also gave a relative viability (NCI-H1734; first compound 2.53 µM) of 0.393, a relative viability (UMC-11; first compound 0.08 µM) of 0.328 and a relative viability (UMC-11; first compound 0.253 µM) of 0.32. The relative viability (UMC-11; first compound 0.8 µM) was 0.248, the relative viability (UMC-11; first compound 2.53 µM) was 0.201 and the relative viability (NCI-H2228; first compound 0.08 µM) was 0.3. It also gave a relative viability (NCI-H2228; first compound 0.253 µM) of 0.328, a relative viability (NCI-H2228; first compound 0.8 µM) of 0.296 and a relative viability (NCI-H2228; first compound 2.53 µM) of 0.252. It also gave a relative viability (NCI-H460; first compound 0.08 µM) of 0.526, a relative viability (NCI-H460; first compound 0.253 µM) of 0.408 and a relative viability (NCI-H460; first compound 0.8 µM) of 0.53. It also gave a relative viability (NCI-H460; first compound 2.53 µM) of 0.502, a relative viability (HCC-366; first compound 0.08 µM) of 0.638 and a relative viability (HCC-366; first compound 0.253 µM) of 0.596. The relative viability (HCC-366; first compound 0.8 µM) was 0.65, the relative viability (HCC-366; first compound 2.53 µM) was 0.634 and the relative viability (NCI-H3122; first compound 0.08 µM) was 0.38. For the same compound, the relative viability (NCI-H3122; first compound 0.253 µM) was 0.336, the relative viability (NCI-H3122; first compound 0.8 µM) was 0.338 and the relative viability (NCI-H3122; first compound 2.53 µM) was 0.39. The relative viability (CAL-12T; first compound 0.08 µM) was 0.592, the relative viability (CAL-12T; first compound 0.253 µM) was 0.507 and the relative viability (CAL-12T; first compound 0.8 µM) was 0.46. The relative viability (CAL-12T; first compound 2.53 µM) was 0.417, the relative viability (NCI-H2170; first compound 0.08 µM) was 0.393 and the relative viability (NCI-H2170; first compound 0.253 µM) was 0.394. For the same compound, the relative viability (NCI-H2170; first compound 0.8 µM) was 0.413, the relative viability (NCI-H2170; first compound 2.53 µM) was 0.362 and the relative viability (RERF-LC-KJ; first compound 0.08 µM) was 0.485. For the same compound, the relative viability (RERF-LC-KJ; first compound 0.253 µM) was 0.425, the relative viability (RERF-LC-KJ; first compound 0.8 µM) was 0.442 and the relative viability (RERF-LC-KJ; first compound 2.53 µM) was 0.364. For the same compound, the relative viability (PC-3 [JPC-3]; first compound 0.08 µM) was 0.441, the relative viability (PC-3 [JPC-3]; first compound 0.253 µM) was 0.466 and the relative viability (PC-3 [JPC-3]; first compound 0.8 µM) was 0.474. The relative viability (PC-3 [JPC-3]; first compound 2.53 µM) was 0.441, the relative viability (LC-2-ad; first compound 0.08 µM) was 0.638 and the relative viability (LC-2-ad; first compound 0.253 µM) was 0.571. For the same compound, the relative viability (LC-2-ad; first compound 0.8 µM) was 0.569, the relative viability (LC-2-ad; first compound 2.53 µM) was 0.575 and the relative viability (NCI-H1755; first compound 0.08 µM) was 0.621. For the same compound, the relative viability (NCI-H1755; first compound 0.253 µM) was 0.543, the relative viability (NCI-H1755; first compound 0.8 µM) was 0.614 and the relative viability (NCI-H1755; first compound 2.53 µM) was 0.563. It also gave a relative viability (NCI-H2405; first compound 0.08 µM) of 0.373, a relative viability (NCI-H2405; first compound 0.253 µM) of 0.399 and a relative viability (NCI-H2405; first compound 0.8 µM) of 0.363. The relative viability (NCI-H2405; first compound 2.53 µM) was 0.413, the relative viability (ChaGo-K-1; first compound 0.08 µM) was 0.51 and the relative viability (ChaGo-K-1; first compound 0.253 µM) was 0.476. It also gave a relative viability (ChaGo-K-1; first compound 0.8 µM) of 0.412, a relative viability (ChaGo-K-1; first compound 2.53 µM) of 0.409 and a relative viability (HCC-78; first compound 0.08 µM) of 0.711. For the same compound, the relative viability (HCC-78; first compound 0.253 µM) was 0.62, the relative viability (HCC-78; first compound 0.8 µM) was 0.66 and the relative viability (HCC-78; first compound 2.53 µM) was 0.516. The relative viability (ABC-1; first compound 0.08 µM) was 0.212, the relative viability (ABC-1; first compound 0.253 µM) was 0.272 and the relative viability (ABC-1; first compound 0.8 µM) was 0.256. It also gave a relative viability (ABC-1; first compound 2.53 µM) of 0.233, a relative viability (LOU-NH91; first compound 0.08 µM) of 0.672 and a relative viability (LOU-NH91; first compound 0.253 µM) of 0.627. For the same compound, the relative viability (LOU-NH91; first compound 0.8 µM) was 0.702, the relative viability (LOU-NH91; first compound 2.53 µM) was 0.618 and the relative viability (NCI-H1793; first compound 0.08 µM) was 0.495. It also gave a relative viability (NCI-H1793; first compound 0.253 µM) of 0.389, a relative viability (NCI-H1793; first compound 0.8 µM) of 0.302 and a relative viability (NCI-H1793; first compound 2.53 µM) of 0.354. For the same compound, the relative viability (NCI-H1395; first compound 0.08 µM) was 0.429, the relative viability (NCI-H1395; first compound 0.253 µM) was 0.443 and the relative viability (NCI-H1395; first compound 0.8 µM) was 0.438. It also gave a relative viability (NCI-H1395; first compound 2.53 µM) of 0.462, a relative viability (NCI-H2087; first compound 0.08 µM) of 0.6 and a relative viability (NCI-H2087; first compound 0.253 µM) of 0.455. It also gave a relative viability (NCI-H2087; first compound 0.8 µM) of 0.433 and a relative viability (NCI-H2087; first compound 2.53 µM) of 0.395.
